Experimental data reported in paper PMC7309260, “Peptide Probes for Plasmodium falciparum MyoA Tail Interacting Protein (MTIP): Exploring the Druggability of the Malaria Parasite Motor Complex” (ACS Chemical Biology, 2020).
Where two headings read alike, the source gives them in different places. Where a SMILES comes first, the peptide text is derived from it. Where no end group is shown, it is not given here. [ ]: non-standard residue; d: D form. The star is where a group is joined. 5FAM = O=C1OC2(c3ccc(O)cc3Oc3cc(O)ccc32)c2ccc(C(=O)*)cc21; Abu(3-Me-diazirin-3-yl) = CC1(CC[C@H](N)C(=O)O)N=N1

Experiments:
PfMTIPΔ60 [1] = biological target: T1, PfMTIPΔ60 (Plasmodium falciparum, UniProt Q8I4W8); assay: biochemical; type: binding
T1 construct: PfMTIPΔ60 stocks were recombinantly expressed in E. coli BL21; made in house; host or cells: E. coli BL21

[2] = test system: P. falciparum (3D7 strain); conditions: for uptake of polyarginines compared by chain length: flow cytometry (Figure 2c)
[3] = test system: P. falciparum late schizonts; conditions: 10 μM peptide, 3 h
P. falciparum [4] = conditions: read-out: EC50, P. falciparum reinvasion / cell viability; serial dilution of peptides in triplicate, egress in presence of peptide, flow cytometry at trophozoite stage, n = 3
PfMTIPΔ60 [5] = biological target: T1, PfMTIPΔ60; assay: biochemical; type: binding; conditions: for n (ITC stoichiometry) / ΔH (ITC) / ΔS (ITC): 303 K, n = 2
P. falciparum [6] = assay: microbe, parasite or virus in culture; conditions: Plasmodium falciparum, read-out: EC50, P. falciparum reinvasion control curve
[7] = 1% TX-100, densitometry, 2 µL loading
[8] = 1% TX-100, densitometry, 5 µL loading
[9] = 1% TX-100, densitometry, average of 2 µL and 5 µL loadings
[10] = densitometry, average of 2 µL and 5 µL loadings

CC[C@H](C)[C@H](NC(=O)[C@H](Cc1c[nH]cn1)NC(=O)[C@H](C)NC(=O)[C@H](CCC(N)=O)NC(=O)[C@@H](NC(=O)[C@H](CCCNC(=N)N)NC(=O)[C@H](CC(C)C)NC(=O)[C@H](CC(C)C)NC(=O)[C@H](CO)NC(=O)[C@@H]1CCCN1C(=O)[C@@H](NC(=O)[C@H](CC(N)=O)NC(=O)[C@H](CCCNC(=N)N)NC(=O)CNC(=O)c1ccc2c(c1)C(=O)OC21c2ccc(O)cc2Oc2cc(O)ccc21)[C@@H](C)CC)C(C)C)C(=O)N[C@@H](CCCNC(=N)N)C(=O)N[C@@H](CCCNC(=N)N)C(=O)N[C@@H](CCCNC(=N)N)C(=O)N[C@@H](CCSC)C(=O)N[C@H](C(N)=O)C(C)C [F-ArgMy1] (5FAM-GRNIPSLLRVQAHIRRRMV-NH2)
Kd (PfMTIPΔ60 [1]): 0.0039 µM | fold improvement in uptake compared to F-My1 ([2]; Pf3D7 early schizonts, flow cytometry (Figure 2d)): 2 fold | permeability, share of all parasitized cells ([2]; midstage schizonts, flow cytometry): up to 50% | In vivo Conc, TX I (insoluble) [3, 7]: 0.06 µM | In vivo Conc, TX S (soluble) [3, 7]: 2.94 µM | In vivo Conc, TX I (insoluble) [3, 8]: 0.39 µM | In vivo Conc, TX S (soluble) [3, 8]: 7.17 µM | In vivo Conc, TX I (insoluble), Av. [3, 9]: 0.22 µM | In vivo Conc, TX S (soluble), Av. [3, 9]: 5.06 µM | In vivo Conc, SLO S (soluble) ([3]; densitometry, 2 µL loading): 2.03 µM | In vivo Conc, SLO I (insoluble) ([3]; densitometry, 5 µL loading): 0.93 µM | In vivo Conc, SLO S (soluble) ([3]; densitometry, 5 µL loading): 3.01 µM | In vivo Conc, SLO I (insoluble), Av. [3, 10]: 0.51 µM | In vivo Conc, SLO S (soluble), Av. [3, 10]: 2.52 µM | In vivo Conc, SLO I (insoluble) ([3]; late schizonts, densitometry of in-gel fluorescence, 2 µL loading): 0.10 µM | EC50 (P. falciparum [4]): ~160 µM

CC[C@H](C)[C@H](NC(=O)[C@H](Cc1c[nH]cn1)NC(=O)[C@H](C)NC(=O)[C@H](CCC(N)=O)NC(=O)[C@@H](NC(=O)[C@H](CCCNC(=N)N)NC(=O)[C@H](CC(C)C)NC(=O)[C@H](CC(C)C)NC(=O)[C@H](CO)NC(=O)[C@@H]1CCCN1C(=O)[C@@H](NC(=O)[C@H](CC(N)=O)NC(=O)[C@H](CCCCN)NC(=O)CNC(=O)c1ccc2c(c1)C(=O)OC21c2ccc(O)cc2Oc2cc(O)ccc21)[C@@H](C)CC)C(C)C)C(=O)N[C@@H](CCCNC(=N)N)C(=O)N[C@@H](CCCCN)C(=O)N[C@@H](CCCCN)C(=O)N[C@@H](CCSC)C(=O)N[C@H](C(N)=O)C(C)C [F-My1] (5FAM-GKNIPSLLRVQAHIRKKMV-NH2)
Kd (PfMTIPΔ60 [5]): 0.0571 ± 0.013 µM | n (ITC stoichiometry) (PfMTIPΔ60 [5]): 0.91 ± 0.01 | ΔH (ITC) (PfMTIPΔ60 [5]): -73.6 ± 0.9 kJ/mol | ΔS (ITC) (PfMTIPΔ60 [5]): -104 J/K.mol | EC50 (P. falciparum [4]): ~160 µM

FAM GRRRRRRRR -NH2 [F-Arg8]
uptake compared with F-My1 ([2]; Pf3D7 early schizonts ca. 35 h PI, flow cytometry, unpaired t test (Figure 2b)): significantly greater permeability over F-My1 | uptake of polyarginines compared by chain length ([2]; Pf3D7 early schizonts): significantly greater than F-Arg6

CC[C@H](C)[C@H](NC(=O)[C@H](Cc1c[nH]cn1)NC(=O)[C@H](CCCNC(=N)N)NC(=O)[C@H](CCC(N)=O)NC(=O)[C@@H](NC(=O)[C@H](C)NC(=O)[C@H](CC(C)C)NC(=O)[C@H](CCCNC(=N)N)NC(=O)[C@H](CO)NC(=O)[C@@H]1CCCN1C(=O)[C@@H](NC(=O)[C@H](CC(N)=O)NC(=O)[C@H](CC(C)C)NC(=O)CNC(=O)c1ccc2c(c1)C(=O)OC21c2ccc(O)cc2Oc2cc(O)ccc21)[C@@H](C)CC)C(C)C)C(=O)N[C@@H](CCCNC(=N)N)C(=O)N[C@@H](CCCNC(=N)N)C(=O)N[C@@H](CCCNC(=N)N)C(=O)N[C@@H](CCSC)C(=O)N[C@H](C(N)=O)C(C)C [F-ArgMy2] (5FAM-GLNIPSRLAVQRHIRRRMV-NH2)
Kd (PfMTIPΔ60 [1]): 4.22 µM

FAM GRRRRRRR -NH2 [F-Arg7]
uptake of polyarginines compared by chain length ([2]; Pf3D7 early schizonts): significantly greater than F-Arg6

KNIPSLLRVQAHIRKKMV-NH2 (C-terminus assumed) [My1]
n (ITC stoichiometry) (PfMTIPΔ60 [5]): 1.06 ± 0.01 | ΔH (ITC) (PfMTIPΔ60 [5]): -66.6 ± 0.5 kJ/mol | ΔS (ITC) (PfMTIPΔ60 [5]): -85.9 J/K.mol

FAM GRRRRRR -NH2 [F-Arg6]
uptake of polyarginines compared by chain length ([2]; Pf3D7 early schizonts): significant improvement over F-Arg4

CC[C@H](C)[C@H](NC(=O)[C@H](Cc1c[nH]cn1)NC(=O)[C@H](C)NC(=O)[C@H](CCC(N)=O)NC(=O)[C@@H](NC(=O)[C@H](CCCNC(=N)N)NC(=O)[C@H](CC(C)C)NC(=O)[C@H](CC(C)C)NC(=O)[C@H](CO)NC(=O)[C@@H]1CCCN1C(=O)[C@@H](NC(=O)[C@H](CC(N)=O)NC(=O)[C@H](CCCCN)NC(=O)CNC(=O)[C@H](CCC1(C)N=N1)NC(=O)c1ccc2c(c1)C(=O)OC21c2ccc(O)cc2Oc2cc(O)ccc21)[C@@H](C)CC)C(C)C)C(=O)N[C@@H](CCCNC(=N)N)C(=O)N[C@@H](CCCCN)C(=O)N[C@@H](CCCCN)C(=O)N[C@@H](CCSC)C(=O)N[C@H](C(N)=O)C(C)C [F/D-My1] (5FAM-[Abu(3-Me-diazirin-3-yl)]GKNIPSLLRVQAHIRKKMV-NH2)
Kd (PfMTIPΔ60 [1]): 0.0034 µM

C[C@H]1[C@@H](O)O[C@@H]2O[C@@]3(C)CC[C@H]4[C@H](C)CC[C@@H]1[C@@]24OO3 [dihydroartemisin, Dihydroartemisinin]
EC50 (P. falciparum [6]): 0.01 µM
